Measurements reported in patent publication US9493472B2, “Substituted benzoxazoles” (BAYER PHARMA AKTIENGESELLSCHAFT, priority 2013, dated 2016).

Tests used:
[1] = molecular target: T1, thrombin (Homo sapiens (Human), UniProt P00734); experiment: Thrombin-inhibitory activity in plasma samples (ecarin-activated); assay type: biochemical; conditions: citrate plasma, prothrombinase activated by ecarin, fluorogenic thrombin substrate; in some cases means; read-out: IC50 [nM] thrombin inhibition in plasma samples
Protocol: To determine the inhibition of thrombin in plasma samples, plasma […] is activated by ecarin. Thrombin activity and/or its inhibition by potential inhibitors is/are then measured fluorenscently by addition of a substrate.
The substances to be tested are dissolved in various concentrations in dimethyl sulphoxide and diluted with water. In white 96-well flat-bottomed plates, 20 μl of substance dilution are mixed with 20 μl of ecarin solution (ecarin reagent, from Sigma E-0504, final concentration 20 mU per reaction) in Ca buffer (200 mM Hepes+560 mM sodium chloride+10 mM calcium chloride+0.4% PEG) or with 20 μl of Ca buffer (as unstimulated control). Furthermore, 20 μl of fluorogenic thrombin substrate (from Bachem I-1120, final concentration 50 μmol/l) and 20 μl of citrate plasma (from Octapharma) are added, and the mixture is homogenized well. The plate is measured in a SpectraFluorplus Reader using a 360 nm excitation filter and a 465 nm emission filter every minute over 20 minutes.

[2] = molecular target: T1, thrombin; experiment: Measurement of the thrombin inhibition in buffer; assay type: biochemical; conditions: human thrombin 0.06 nmol/l, Tris buffer pH 7.4, 22° C.; substrate Boc-Asp(OBzl)-Pro-Arg-AMC; in some cases means
Protocol: To determine the thrombin inhibition of the substances listed above, a biochemical test system is constructed in which the conversion of a thrombin substrate is used for determining the enzymatic activity of human thrombin. Here, thrombin cleaves aminomethylcoumarin, which is measured fluorescently, from the peptic substrate. The determinations are carried out in microtitre plates.
Substances to be tested are dissolved in various concentrations in dimethyl sulphoxide and incubated for 15 min with human thrombin (0.06 nmol/l dissolved in 50 mmol/l of Tris buffer [C,C,C-tris(hydroxymethyl)aminomethane], 100 mmol/l of sodium chloride, 0.1% BSA [bovine serum albumin], pH 7.4) at 22° C. The substrate (5 μmol/l Boc-Asp(OBzl)-Pro-Arg-AMC from Bachem) is then added. After 30 min of incubation, the sample is excited at a wavelength of 360 nm and the emission is measured at 460 nm. The measured emissions of the test batches with test substance are compared to the control batches without test substance (only dimethyl sulphoxide instead of test substance in dimethyl sulphoxide) and the IC50 values are calculated from the concentration/activity relationships.

[3] = tested on: plasma (prothrombin time); experiment: Anticoagulatory activity: prothrombin time (PT) in plasma; conditions: 37° C., 3 minutes incubation, plasma species not given, in some cases means, read-out: IC50 [μM] (concentration of test substance which effects a doubling of the prothrombin time)
Protocol: The anticoagulatory activity of the test substances is determined in vitro in human plasma, rabbit plasma and rat plasma. To this end, blood is drawn off in a mixing ratio of sodium citrate/blood of 1:9 using a 0.11 molar sodium citrate solution as receiver. Immediately after the blood has been drawn off, it is mixed thoroughly and centrifuged at about 4000 g for 15 minutes. The supernatant is pipetted off.
The prothrombin time (PT, synonyms: thromboplastin time, quick test) is determined in the presence of varying concentrations of test substance or the corresponding solvent using a commercial test kit (Neoplastin® from Boehringer Mannheim or Hemoliance® RecombiPlastin from Instrumentation Laboratory). The test compounds are incubated with the plasma at 37° C. for 3 minutes. Coagulation is then started by addition of thromboplastin, and the time when coagulation occurs is determined. The concentration of test substance which effects a doubling of the prothrombin time is determined Representative activity data from this test are given in Table 3 below (in some cases as means of individual determinations): […]

SMILES	IC50 [1]	IC50 [2]	IC50 [3]
COc1cc(C(=O)N2CCC(O)C(C)C2)cc2nc(NC(CF)c3cccc(Cl)c3)oc12 (single isomer, unassigned) [Example 2, (2-{[1-(3-Chlorophenyl)-2-fluoroethyl]amino}-7-methoxy-1,3-benzoxazol-5-yl)(4-hydroxy-3-methylpiperidin-1-yl)methanone]	31 nM	31 nM	
COc1cc(C(=O)N2CC(C)(C)OCC2CO)cc2nc(NC(CF)c3cccc(Cl)c3)oc12 (single isomer, unassigned) [Example 6, (2-{[1-(3-Chlorophenyl)-2-fluoroethyl]amino}-7-methoxy-1,3-benzoxazol-5-yl)[5-(hydroxymethyl)-2,2-dimethylmorpholin-4-yl]methanone]	16.5 nM	9.7 nM	
COc1cc(C(=O)N2CC(C)OC[C@H]2C)cc2nc(NC(CF)c3cccc(Cl)c3)oc12 (single isomer, unassigned) [Example 7]	11.4 nM	5.3 nM	1.9 µM
COc1cc(C(=O)N2CC(C)OC[C@H]2C)cc2nc(NC(CF)c3cccc(Cl)c3)oc12 (single isomer, unassigned) [Example 8]	25.3 nM	11 nM	
COc1cc(C(=O)N2CC(C)(CCO)OC[C@H]2C)cc2nc(NC(CF)c3cccc(Cl)c3)oc12 (single isomer, unassigned) [Example 10]	1400 nM	130 nM	
CCO[C@@H]1CC(CO)N(C(=O)c2cc(OC)c3oc(NC(CF)c4cccc(Cl)c4)nc3c2)C1 (single isomer, unassigned) [Example 27]	4.6 nM	0.16 nM	1 µM
CCO[C@@H]1CC(CCO)N(C(=O)c2cc(OC)c3oc(NC(CF)c4cccc(Cl)c4)nc3c2)C1 (single isomer, unassigned) [Example 31]	5 nM	0.54 nM	
COc1cc(C(=O)N2CC3(CC3)NC(=O)C2C)cc2nc(NC(CF)c3cccc(Cl)c3)oc12 (single isomer, unassigned) [Example 33, 7-[(2-{[1-(3-Chlorophenyl)-2-fluoroethyl]amino}-7-methoxy-1,3-benzoxazol-5-yl)carbonyl]-6-methyl-4,7-diazaspiro[2.5]octan-5-one]	8.4 nM	0.38 nM	0.8 µM
COc1cc(C(=O)N2CCC(O)C(C)C2)cc2nc(NC(CF)c3cccc(Cl)c3)oc12 (stereo not drawn) [Example 1, (2-{[1-(3-Chlorophenyl)-2-fluoroethyl]amino}-7-methoxy-1,3-benzoxazol-5-yl)(4-hydroxy-3-methylpiperidin-1-yl)methanone]	21 nM	3.2 nM	
COc1cc(C(=O)N2CC(C)OCC2CCO)cc2nc(NC(CF)c3cccc(Cl)c3)oc12 (stereo not drawn) [Example 13, (2-{[1-(3-Chlorophenyl)-2-fluoroethyl]amino}-7-methoxy-1,3-benzoxazol-5-yl)[5-(2-hydroxyethyl)-2-methylmorpholin-4-yl]methanone]			1.4 µM
COc1cc(C(=O)N2CC(C)OC[C@]23C[C@H](O)C3)cc2nc(NC(CF)c3cccc(Cl)c3)oc12 (stereo partly drawn) [Example 22, (2-{[1-(3-Chlorophenyl)-2-fluoroethyl]amino}-7-methoxy-1,3-benzoxazol-5-yl)(cis-2-hydroxy-7-methyl-8-oxa-5-azaspiro[3.5]non-5-yl)methanone]	3.8 nM	1.6 nM	
COc1cc(C(=O)N2CC3(CC3)NC(=O)C2C)cc2nc(NC(CF)c3cccc(Cl)c3)oc12 (stereo not drawn) [Example 32, 7-[(2-{[1-(3-Chlorophenyl)-2-fluoroethyl]amino}-7-methoxy-1,3-benzoxazol-5-yl)carbonyl]-6-methyl-4,7-diazaspiro[2.5]octan-5-one]	7.3 nM	0.7 nM	

The remaining lines, values ahead:

IC50 [1]	IC50 [2]	IC50 [3]	SMILES
11.6 nM	2.4 nM	1.8 µM	COc1cc(C(=O)N2CCC(O)C(C)C2)cc2nc(NC(CF)c3cccc(Cl)c3)oc12 (single isomer, unassigned) [Example 3, (2-{[1-(3-Chlorophenyl)-2-fluoroethyl]amino}-7-methoxy-1,3-benzoxazol-5-yl)(4-hydroxy-3-methylpiperidin-1-yl)methanone]
4.8 nM	1.1 nM		COc1cc(C(=O)N2CC(C)(C)OCC2CO)cc2nc(NC(CF)c3cccc(Cl)c3)oc12 (single isomer, unassigned) [Example 5, (2-{[1-(3-Chlorophenyl)-2-fluoroethyl]amino}-7-methoxy-1,3-benzoxazol-5-yl)[5-(hydroxymethyl)-2,2-dimethylmorpholin-4-yl]methanone]
5.7 nM	0.01 nM	1 µM	COc1cc(C(=O)N2CC(C)(CCO)OC[C@H]2C)cc2nc(NC(CF)c3cccc(Cl)c3)oc12 (single isomer, unassigned) [Example 11]
4.7 nM	1.7 nM		COc1cc(C(=O)N2CC3CCN3C(=O)C2C)cc2nc(NC(CF)c3cccc(Cl)c3)oc12 (single isomer, unassigned) [Example 23, 4-[(2-{[1-(3-Chlorophenyl)-2-fluoroethyl]amino}-7-methoxy-1,3-benzoxazol-5-yl)carbonyl]-3-methyl-1,4-diazabicyclo[4.2.0]octan-2-one]
4.5 nM			COc1cc(C(=O)N2CC(C)OC[C@@H]2CC(=O)O)cc2nc(NC(CF)c3cccc(Cl)c3)oc12 (single isomer, unassigned) [Example 24]
56 nM	2.3 nM		CCO[C@@H]1CC(CO)N(C(=O)c2cc(OC)c3oc(NC(CF)c4cccc(Cl)c4)nc3c2)C1 (single isomer, unassigned) [Example 28]
46 nM	5.3 nM		CCO[C@@H]1CC(CCO)N(C(=O)c2cc(OC)c3oc(NC(CF)c4cccc(Cl)c4)nc3c2)C1 (single isomer, unassigned) [Example 30]
170 nM	20 nM		COc1cc(C(=O)N2CC3(CC3)NC(=O)C2C)cc2nc(NC(CF)c3cccc(Cl)c3)oc12 (single isomer, unassigned) [Example 34, 7-[(2-{[1-(3-Chlorophenyl)-2-fluoroethyl]amino}-7-methoxy-1,3-benzoxazol-5-yl)carbonyl]-6-methyl-4,7-diazaspiro[2.5]octan-5-one]
9.8 nM	1.7 nM		COc1cc(C(=O)N2CC(C)(C)OCC2CO)cc2nc(NC(CF)c3cccc(Cl)c3)oc12 (stereo not drawn) [Example 4, (2-{[1-(3-Chlorophenyl)-2-fluoroethyl]amino}-7-methoxy-1,3-benzoxazol-5-yl)[5-(hydroxymethyl)-2,2-dimethylmorpholin-4-yl]methanone]
14.3 nM	0.2 nM		COc1cc(C(=O)N2CC(C)(CCO)OC[C@H]2C)cc2nc(NC(CF)c3cccc(Cl)c3)oc12 (stereo partly drawn) [Example 9, (2-{[1-(3-Chlorophenyl)-2-fluoroethyl]amino}-7-methoxy-1,3-benzoxazol-5-yl)[(5R)-2-(2-hydroxyethyl)-2,5-dimethylmorpholin-4-yl]methanone]
2 nM	0.19 nM		CCO[C@@H]1CC(CO)N(C(=O)c2cc(OC)c3oc(NC(CF)c4cccc(Cl)c4)nc3c2)C1 (stereo partly drawn) [Example 26, (2-{[1-(3-Chlorophenyl)-2-fluoroethyl]amino}-7-methoxy-1,3-benzoxazol-5-yl)[(4R)-4-ethoxy-2-(hydroxymethyl)pyrrolidin-1-yl]methanone]
15 nM	1.1 nM		CCO[C@@H]1CC(CCO)N(C(=O)c2cc(OC)c3oc(NC(CF)c4cccc(Cl)c4)nc3c2)C1 (stereo partly drawn) [Example 29, (2-{[1-(3-Chlorophenyl)-2-fluoroethyl]amino}-7-methoxy-1,3-benzoxazol-5-yl)[(4R)-4-ethoxy-2-(2-hydroxyethyl)pyrrolidin-1-yl]methanone]
